Results taken from PubChem BioAssay AID330 (DTP/NCI, 2004).
Several values for one entry are separate records, joined by “and”; a condition that tells them apart may be missing. Identical values can stand only once. Toxic doses and inconclusive results are not listed. The calls were made as follows: active = survival T/C of 150% or more; inactive = T/C below 125% in these data.

Tested on: P388 leukemia ip, CD2F1 mice, survival T/C
Test: NCI In Vivo Anticancer Drug Screen. Data for tumor model P388 Leukemia (intraperitoneal) in CD2F1 (CDF1) mice
Settings: endpoint: median survival time, higher = longer survival
Summary of the method: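 Mice carrying the transplanted tumor received test compound or vehicle. Survival was recorded in each group, and the value is the treated-group measurement divided by that of the vehicle-treated control group.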

[1] = dose: 50.0 mg/kg/injection, schedule: Q01DX005 (ip), vehicle: Klucel (hydroxypropylcellulose) (HPC)
[2] = dose: 100.0 mg/kg/injection, schedule: Q01DX005 (ip), vehicle: Klucel (hydroxypropylcellulose) (HPC)
[3] = dose: 200.0 mg/kg/injection, schedule: Q01DX005 (ip), vehicle: Klucel (hydroxypropylcellulose) (HPC)
[4] = dose: 50.0 mg/kg/injection, schedule: Q01DX005 (ip), vehicle: saline with Tween-80
[5] = dose: 100.0 mg/kg/injection, schedule: Q01DX005 (ip), vehicle: saline with Tween-80
[6] = dose: 200.0 mg/kg/injection, schedule: Q01DX005 (ip), vehicle: saline with Tween-80
[7] = dose: 6.25 mg/kg/injection, schedule: Q01DX005 (ip), vehicle: saline with Tween-80
[8] = dose: 12.5 mg/kg/injection, schedule: Q01DX005 (ip), vehicle: saline with Tween-80
[9] = dose: 25.0 mg/kg/injection, schedule: Q01DX005 (ip), vehicle: saline with Tween-80
[10] = dose: 200.0 mg/kg/injection, schedule: Q01DX001 (ip), vehicle: saline with Tween-80
[11] = dose: 100.0 mg/kg/injection, schedule: Q04DX002 (ip), vehicle: saline with Tween-80
[12] = dose: 200.0 mg/kg/injection, schedule: Q04DX002 (ip), vehicle: saline with Tween-80
[13] = dose: 50.0 mg/kg/injection, schedule: Q01DX009 (ip), vehicle: saline with Tween-80
[14] = dose: 100.0 mg/kg/injection, schedule: Q01DX009 (ip), vehicle: saline with Tween-80
[15] = dose: 200.0 mg/kg/injection, schedule: Q01DX009 (ip), vehicle: saline with Tween-80

Measured: T/C

N#CC1CC(=O)c2ccccc2C1=O (centres undefined)
inactive: [1] 102 % of control | [2] 104 % of control | [3] 108 % of control

Cc1nc(Nc2ccccc2)c2c(-c3ccccc3)c[nH]c2n1
inactive: [1] 89 % of control | [2] 90 % of control | [3] 100 % of control

CCOP(=O)(Nc1cc2c(=O)n(C)cnc2cc1Cl)OCC
inactive: dose: 100.0 mg/kg/injection, schedule: Q04DX003 (ip), vehicle: saline with Tween-80 105 % of control | dose: 200.0 mg/kg/injection, schedule: Q04DX003 (ip), vehicle: saline with Tween-80 100 % of control

CN(C)CCCSc1nnc(-c2ccc3c(c2)OCO3)o1
inactive: dose: 50.0 mg/kg/injection, schedule: Q04DX002 (ip), vehicle: water 106 % of control | dose: 100.0 mg/kg/injection, schedule: Q04DX002 (ip), vehicle: water 100 % of control | dose: 200.0 mg/kg/injection, schedule: Q04DX002 (ip), vehicle: water 101 % of control

O=C(N/N=C\c1cc([N+](=O)[O-])ccc1O)C(=O)N/N=C\c1cc([N+](=O)[O-])ccc1O
inactive: dose: 50.0 mg/kg/injection, schedule: Q01DX009 (ip), vehicle: Klucel (hydroxypropylcellulose) (HPC) 106 % of control | dose: 100.0 mg/kg/injection, schedule: Q01DX009 (ip), vehicle: Klucel (hydroxypropylcellulose) (HPC) 95 % of control | dose: 200.0 mg/kg/injection, schedule: Q01DX009 (ip), vehicle: Klucel (hydroxypropylcellulose) (HPC) 99 % of control

CCCCCCCCCCCSSCCCCCCCCCCC
inactive: dose: 100.0 mg/kg/injection, schedule: Q01DX009 (ip), vehicle: other 100 % of control | dose: 100.0 mg/kg/injection, schedule: Q04DX003 (ip), vehicle: other 109 % of control | dose: 200.0 mg/kg/injection, schedule: Q01DX009 (ip), vehicle: other 109 % of control | dose: 200.0 mg/kg/injection, schedule: Q04DX003 (ip), vehicle: other 104 % of control | dose: 400.0 mg/kg/injection, schedule: Q01DX009 (ip), vehicle: other 104 % of control | dose: 400.0 mg/kg/injection, schedule: Q04DX003 (ip), vehicle: other 100 % of control

CC1(O)C(=O)OC(CO)C1O (centres undefined)
inactive: [4] 102 % of control | [5] 102 % of control | [6] 100 % of control

NC(=O)N=Nc1c(F)c(F)c(F)c(F)c1F
inactive: [7] 103 % of control | [8] 106 % of control | [9] 116 % of control | [4] 116 % of control | [5] 113 % of control

O=Cc1cc2ccc3ccccc3c2[nH]1
inactive: [10] 90 % of control

COc1c2occc2c(S(=O)(=O)Cl)c2ccc(=O)oc12
inactive: dose: 100.0 mg/kg/injection, schedule: Q01DX001 (ip), vehicle: saline with Tween-80 95 % of control | [10] 109 % of control | dose: 400.0 mg/kg/injection, schedule: Q01DX001 (ip), vehicle: saline with Tween-80 100 % of control

CCCC1CCC(=C2C(=O)CCC2=O)O1 (centres undefined)
inactive: dose: 25.0 mg/kg/injection, schedule: Q04DX002 (ip), vehicle: saline 102 % of control | dose: 50.0 mg/kg/injection, schedule: Q04DX002 (ip), vehicle: saline 102 % of control | [11] 110 % of control | dose: 100.0 mg/kg/injection, schedule: Q04DX002 (ip), vehicle: saline 103 % of control | [12] 102 % of control | dose: 200.0 mg/kg/injection, schedule: Q04DX002 (ip), vehicle: saline 100 % of control

O=C(NC1c2ccccc2Oc2ccccc21)c1ccc([N+](=O)[O-])cc1
inactive: [4] 102 % of control | [5] 93 % of control | [6] 91 % of control

C=CS(=O)(=O)c1ccc(C)cc1
inactive: dose: 1.56 mg/kg/injection, schedule: Q01DX009 (ip), vehicle: Klucel (hydroxypropylcellulose) (HPC) 104 % of control | dose: 3.13 mg/kg/injection, schedule: Q01DX009 (ip), vehicle: Klucel (hydroxypropylcellulose) (HPC) 99 % of control and 105 % of control | dose: 6.25 mg/kg/injection, schedule: Q01DX009 (ip), vehicle: Klucel (hydroxypropylcellulose) (HPC) 121 % of control and 95 % of control | dose: 12.5 mg/kg/injection, schedule: Q01DX009 (ip), vehicle: Klucel (hydroxypropylcellulose) (HPC) 99 % of control and 111 % of control

COc1ccc(/C=N/OC(=S)NC2CCCCC2)cc1OC
inactive: [4] 102 % of control | [5] 94 % of control | [6] 93 % of control

CC1(C)OC1(C(=O)C=[N+]=[N-])c1ccccc1 (centres undefined)
inactive: [9] 96 % of control | [4] 99 % of control | [5] 96 % of control | [6] 103 % of control

CCCCCCCCCCCCCCCCCC(=O)NC1=C(Cl)C(=O)c2ccccc2C1=O
inactive: [4] 94 % of control | [5] 94 % of control | [6] 91 % of control

CN(C)P(=O)(N(C)C)N1CCC1
inactive: dose: 50.0 mg/kg/injection, schedule: Q01DX009 (ip), vehicle: saline 104 % of control | dose: 100.0 mg/kg/injection, schedule: Q01DX009 (ip), vehicle: saline 112 % of control

O=C(O)c1cc2ccccc2c(Br)c1O.O=[N+]([O-])C1CCC(O)C2[N-]CCCC21.[Cu+]
inactive: [7] 97 % of control | [8] 100 % of control and 106 % of control | [9] 106 % of control and 98 % of control

N#Cc1ccc(OC(=O)Nc2c(Br)cc(Br)cc2Br)cc1
inactive: dose: 60.0 mg/kg/injection, schedule: Q01DX005 (ip), vehicle: saline with Tween-80 93 % of control | dose: 120.0 mg/kg/injection, schedule: Q01DX005 (ip), vehicle: saline with Tween-80 99 % of control | dose: 240.0 mg/kg/injection, schedule: Q01DX005 (ip), vehicle: saline with Tween-80 99 % of control

Oc1c(-c2ccccc2)cc(-c2ccc(Br)cc2)c(-c2ccc(Br)cc2)c1-c1ccccc1
inactive: dose: 12.5 mg/kg/injection, schedule: Q01DX009 (ip), vehicle: saline with Tween-80 107 % of control | dose: 25.0 mg/kg/injection, schedule: Q01DX009 (ip), vehicle: saline with Tween-80 95 % of control | [13] 98 % of control | [14] 105 % of control | [15] 96 % of control

O=C1C=CC2(C=C1)CCN(C(=O)C(F)(F)F)Cc1cc3c(cc12)OCO3
inactive: [11] 97 % of control | [12] 91 % of control | dose: 400.0 mg/kg/injection, schedule: Q04DX002 (ip), vehicle: saline with Tween-80 93 % of control

Cc1ccc(N(O)C(=O)c2ccccc2)c(C)c1
inactive: [4] 102 % of control and 98 % of control | [5] 92 % of control and 93 % of control | [6] 123 % of control and 98 % of control | dose: 400.0 mg/kg/injection, schedule: Q01DX005 (ip), vehicle: saline with Tween-80 111 % of control

Oc1ccc(C2c3ccccc3Oc3ccccc32)cc1
inactive: [13] 101 % of control | [14] 111 % of control | [15] 118 % of control

CCN(CC)CCOC(C)(C#CC(C)(O)CC)CC (centres undefined)
inactive: [4] 100 % of control | [5] 106 % of control

COc1ccc(C(O)C2c3cc4c(cc3CCN2C)OCO4)c(CO)c1OC (centres undefined)
inactive: dose: 25.0 mg/kg/injection, schedule: Q01DX001 (ip), vehicle: saline + alcohol 88 % of control | dose: 50.0 mg/kg/injection, schedule: Q01DX001 (ip), vehicle: saline + alcohol 95 % of control | dose: 100.0 mg/kg/injection, schedule: Q01DX001 (ip), vehicle: saline + alcohol 104 % of control

CC(C)=C(OS(=O)(=O)C(F)(F)F)[Si](C)(C)C
inactive: [13] 99 % of control | [14] 105 % of control | [15] 105 % of control

Cc1cc(NC(=O)c2ccc(C(=O)Nc3ccc(N=Nc4cc(S(=O)(=O)O)c5cccc(S(=O)(=O)O)c5c4)c(C)c3)cc2)ccc1N=Nc1cc(S(=O)(=O)O)c2cccc(S(=O)(=O)O)c2c1
inactive: [4] 94 % of control | [5] 93 % of control | [6] 98 % of control
